In PubChem BioAssay AID330 (DTP/NCI, 2004):
“And” between values parts separate entries of the source, which are not always exact repeats. Equal values may be shown once. Inconclusive results and toxic doses are left out. Peptide text beside a SMILES is read from it. * marks the point of attachment. Boc = CC(C)(C)OC(=O)*

Test system: P388 leukemia ip, CD2F1 mice, survival T/C
Experiment: NCI In Vivo Anticancer Drug Screen. Data for tumor model P388 Leukemia (intraperitoneal) in CD2F1 (CDF1) mice
Conditions: endpoint: median survival time, higher = longer survival
Outline: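 Mice carrying the transplanted tumor received test compound or vehicle. Survival was recorded in each group, and the value is the treated-group measurement divided by that of the vehicle-treated control group.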

[1] = dose: 50.0 mg/kg/injection, schedule: Q01DX005 (ip), vehicle: Klucel (hydroxypropylcellulose) (HPC)
[2] = dose: 100.0 mg/kg/injection, schedule: Q01DX005 (ip), vehicle: Klucel (hydroxypropylcellulose) (HPC)
[3] = dose: 25.0 mg/kg/injection, schedule: Q01DX005 (ip), vehicle: saline with Tween-80
[4] = dose: 50.0 mg/kg/injection, schedule: Q01DX005 (ip), vehicle: saline with Tween-80
[5] = dose: 200.0 mg/kg/injection, schedule: Q01DX005 (ip), vehicle: Klucel (hydroxypropylcellulose) (HPC)
[6] = dose: 100.0 mg/kg/injection, schedule: Q01DX005 (ip), vehicle: saline with Tween-80
[7] = dose: 50.0 mg/kg/injection, schedule: Q01DX009 (ip), vehicle: saline
[8] = dose: 100.0 mg/kg/injection, schedule: Q01DX009 (ip), vehicle: saline
[9] = dose: 200.0 mg/kg/injection, schedule: Q01DX009 (ip), vehicle: saline
[10] = dose: 12.5 mg/kg/injection, schedule: Q01DX009 (ip), vehicle: saline with Tween-80
[11] = dose: 25.0 mg/kg/injection, schedule: Q01DX009 (ip), vehicle: saline with Tween-80
[12] = dose: 50.0 mg/kg/injection, schedule: Q01DX009 (ip), vehicle: saline with Tween-80
[13] = dose: 100.0 mg/kg/injection, schedule: Q01DX009 (ip), vehicle: saline with Tween-80
[14] = dose: 50.0 mg/kg/injection, schedule: Q01DX005 (ip), vehicle: saline
[15] = dose: 100.0 mg/kg/injection, schedule: Q01DX005 (ip), vehicle: saline
[16] = dose: 200.0 mg/kg/injection, schedule: Q01DX005 (ip), vehicle: saline

## CC(=O)OCC1OC(n2cnc3c(N)ncnc32)C2OC(C)(C)OC12 (configuration not stated)
[1]
  T/C: 101 % of control
[2]
  T/C: 97 % of control

## CC1CCCC(C)N1Cc1ccccc1 (configuration not stated)
[3]
  T/C: 93 % of control
[4]
  T/C: 93 % of control

## CCOC(=O)/C=C(/C)Sc1cc(O)c2ccccc2c1O
dose: 6.25 mg/kg/injection, schedule: Q01DX009 (ip), vehicle: saline with Tween-80
  T/C: 100 % of control

## COc1ccc(Cc2cc3c(cc2OCC(=O)Nc2nccs2)OCO3)cc1
[1]
  T/C: 88 % of control
[2]
  T/C: 97 % of control
[5]
  T/C: 97 % of control

## CC(C)(C)OC(=O)NCCCCC(NC(=O)OCc1ccccc1)C(=O)ON1C(=O)CCC1=O (configuration not stated)
[4]
  T/C: 101 % of control
[6]
  T/C: 102 % of control
dose: 200.0 mg/kg/injection, schedule: Q01DX005 (ip), vehicle: saline with Tween-80
  T/C: 107 % of control

## NC(=O)c1[nH]c(=O)[nH]c(=O)c1CSc1ccc(Cl)cc1
dose: 6.25 mg/kg/injection, schedule: Q01DX005 (ip), vehicle: saline with Tween-80
  T/C: 99 % of control
dose: 12.5 mg/kg/injection, schedule: Q01DX005 (ip), vehicle: saline with Tween-80
  T/C: 97 % of control
[3]
  T/C: 107 % of control
[4]
  T/C: 109 % of control
[6]
  T/C: 111 % of control

## Brc1ccc(CC[P+](c2ccccc2)(c2ccccc2)c2ccccc2)cc1
dose: 25.0 mg/kg/injection, schedule: Q04DX003 (ip), vehicle: Klucel (hydroxypropylcellulose) (HPC)
  T/C: 109 % of control
dose: 50.0 mg/kg/injection, schedule: Q04DX003 (ip), vehicle: Klucel (hydroxypropylcellulose) (HPC)
  T/C: 101 % of control
dose: 100.0 mg/kg/injection, schedule: Q04DX003 (ip), vehicle: Klucel (hydroxypropylcellulose) (HPC)
  T/C: 100 % of control and 105 % of control

## COC(=O)CS(=O)(=O)CCCS(=O)(=O)CC(=O)OC
[7]
  T/C: 105 % of control
[8]
  T/C: 99 % of control
[9]
  T/C: 103 % of control

## CC1(C)OC1CCl (configuration not stated)
[7]
  T/C: 107 % of control
[8]
  T/C: 102 % of control
[9]
  T/C: 101 % of control

## CC(=O)NCCCCCCCNC(C)=O
dose: 60.0 mg/kg/injection, schedule: Q01DX005 (ip), vehicle: saline
  T/C: 104 % of control
dose: 120.0 mg/kg/injection, schedule: Q01DX005 (ip), vehicle: saline
  T/C: 107 % of control
dose: 240.0 mg/kg/injection, schedule: Q01DX005 (ip), vehicle: saline
  T/C: 96 % of control

## C=C1CC2(CCCCC2C)OC1=O (configuration not stated)
dose: 100.0 mg/kg/injection, schedule: Q01DX001 (ip), vehicle: saline
  T/C: 101 % of control
dose: 200.0 mg/kg/injection, schedule: Q01DX001 (ip), vehicle: saline
  T/C: 101 % of control
dose: 400.0 mg/kg/injection, schedule: Q01DX001 (ip), vehicle: saline
  T/C: 100 % of control

## CCCCC(=O)NN
[10]
  T/C: 96 % of control
[11]
  T/C: 102 % of control
[12]
  T/C: 102 % of control

## CCCCCCC(=O)/C=C/c1ccc(OC(=O)c2ccc(Br)cc2)cc1
[10]
  T/C: 104 % of control
[11]
  T/C: 96 % of control
[12]
  T/C: 96 % of control

## CC1SC(c2ccc(Cl)cc2)N2C(=O)C(C)SC(c3ccc(Cl)cc3)N2C1=O (configuration not stated)
[12]
  T/C: 87 % of control
[13]
  T/C: 86 % of control

## CC(=O)c1ccc(N=C2c3ccccc3CN2c2ccc(C(C)=O)cc2)cc1
[4]
  T/C: 88 % of control
[6]
  T/C: 89 % of control

## CS(=O)(=O)CS(=O)(=O)OCCCl
dose: 6.25 mg/kg/injection, schedule: Q01DX005 (ip), vehicle: dextrose
  T/C: 109 % of control
dose: 6.25 mg/kg/injection, schedule: Q01DX005 (ip), vehicle: distilled water + Tween-80
  T/C: 114 % of control
dose: 6.25 mg/kg/injection, schedule: Q01DX005 (iv), vehicle: dextrose
  T/C: 109 % of control
dose: 10.0 mg/kg/injection, schedule: Q01DX005 (ip), vehicle: saline
  T/C: 121 % of control
dose: 12.5 mg/kg/injection, schedule: Q01DX005 (iv), vehicle: dextrose
  T/C: 118 % of control
dose: 22.0 mg/kg/injection, schedule: Q01DX005 (ip), vehicle: saline
  T/C: 166 % of control
dose: 25.0 mg/kg/injection, schedule: Q01DX005 (ip), vehicle: dextrose
  T/C: 154 % of control
dose: 33.0 mg/kg/injection, schedule: Q01DX005 (ip), vehicle: other
  T/C: 230 % of control
dose: 33.0 mg/kg/injection, schedule: Q01DX005 (ip), vehicle: saline
  T/C: 198 % of control
dose: 33.0 mg/kg/injection, schedule: Q01DX005 (ip), vehicle: water
  T/C: 201 % of control
dose: 33.5 mg/kg/injection, schedule: Q01DX005 (ip), vehicle: saline
  T/C: 209 % of control
dose: 50.0 mg/kg/injection, schedule: Q01DX005 (ip), vehicle: dextrose
  T/C: 241 % of control and 330 % of control
dose: 50.0 mg/kg/injection, schedule: Q01DX005 (ip), vehicle: distilled water + Tween-80
  T/C: 250 % of control
dose: 50.0 mg/kg/injection, schedule: Q01DX005 (ip), vehicle: other
  T/C: 588 % of control
[14]
  T/C: 245 % of control and 267 % of control
dose: 50.0 mg/kg/injection, schedule: Q01DX005 (ip), vehicle: water
  T/C: 254 % of control and 285 % of control
dose: 50.0 mg/kg/injection, schedule: Q01DX005 (iv), vehicle: dextrose
  T/C: 196 % of control
dose: 75.0 mg/kg/injection, schedule: Q01DX005 (ip), vehicle: dextrose
  T/C: 582 % of control
dose: 75.0 mg/kg/injection, schedule: Q01DX005 (ip), vehicle: other
  T/C: 588 % of control
dose: 75.0 mg/kg/injection, schedule: Q01DX005 (ip), vehicle: saline
  T/C: 156 % of control
dose: 75.0 mg/kg/injection, schedule: Q01DX005 (ip), vehicle: water
  T/C: 294 % of control
dose: 100.0 mg/kg/injection, schedule: Q01DX005 (ip), vehicle: dextrose
  T/C: 535 % of control
dose: 100.0 mg/kg/injection, schedule: Q01DX005 (ip), vehicle: distilled water + Tween-80
  T/C: 535 % of control
dose: 100.0 mg/kg/injection, schedule: Q01DX005 (ip), vehicle: other
  T/C: 588 % of control
[15]
  T/C: 151 % of control and 200 % of control
dose: 100.0 mg/kg/injection, schedule: Q01DX005 (ip), vehicle: water
  T/C: 294 % of control

## COc1ccc(/C=C\C(C)=N\NC(=S)Nc2ccc(Br)cc2)cc1
[1]
  T/C: 97 % of control
[2]
  T/C: 96 % of control
[5]
  T/C: 89 % of control

## O=C(N/N=C/c1cc(Br)cc(Br)c1[O-])c1ccccc1.O=C(N/N=C/c1cc(Br)cc(Br)c1[O-])c1ccccc1.[Co+2]
dose: 100.0 mg/kg/injection, schedule: Q01DX001 (ip), vehicle: saline with Tween-80
  T/C: 86 % of control

## N#CC1=NOC(C(N)C(=O)O)C1 (configuration not stated)
dose: 50.0 mg/kg/injection, schedule: Q04DX002 (ip), vehicle: saline
  T/C: 103 % of control
dose: 100.0 mg/kg/injection, schedule: Q04DX002 (ip), vehicle: saline
  T/C: 100 % of control
dose: 200.0 mg/kg/injection, schedule: Q04DX002 (ip), vehicle: saline
  T/C: 98 % of control

## c1ccc2c(c1)C1CC3N=NC1C23 (configuration not stated)
[1]
  T/C: 105 % of control
[2]
  T/C: 107 % of control

## O=C(N/N=C/c1ccc(/C=N/NC(=O)c2cccnc2)cc1)c1cccnc1
[12]
  T/C: 102 % of control
[13]
  T/C: 96 % of control
dose: 200.0 mg/kg/injection, schedule: Q01DX009 (ip), vehicle: saline with Tween-80
  T/C: 93 % of control

## O=[N+]([O-])c1cnc2ccccn12
[10]
  T/C: 100 % of control
[11]
  T/C: 93 % of control
[12]
  T/C: 94 % of control
[13]
  T/C: 95 % of control

## O=[N+]([O-])c1ccc(NN=NCCF)cc1
dose: 0.44 mg/kg/injection, schedule: Q01DX005 (ip), vehicle: other
  T/C: 102 % of control and 94 % of control
dose: 0.88 mg/kg/injection, schedule: Q01DX005 (ip), vehicle: other
  T/C: 102 % of control and 94 % of control
dose: 1.75 mg/kg/injection, schedule: Q01DX005 (ip), vehicle: other
  T/C: 105 % of control and 124 % of control and 94 % of control
dose: 3.5 mg/kg/injection, schedule: Q01DX005 (ip), vehicle: other
  T/C: 100 % of control and 106 % of control and 94 % of control
dose: 7.0 mg/kg/injection, schedule: Q01DX005 (ip), vehicle: other
  T/C: 109 % of control

## CSCCC(NC(=O)OC(C)(C)C)C(=O)NC(CCSC)C(=O)NC(C)C(=O)O (stereo not drawn) (Boc-Met-Met-Ala-OH; configuration not given here)
[1]
  T/C: 98 % of control
[2]
  T/C: 102 % of control
[5]
  T/C: 102 % of control

## O=C(NP(=O)(O)NC(Cc1ccccc1)C(=O)O)OCc1ccccc1 (configuration not stated)
[14]
  T/C: 106 % of control
[15]
  T/C: 109 % of control
[16]
  T/C: 102 % of control

## CC1=NN(C(=O)CC(=O)Nc2ccc(C(=O)O)cc2)C(=O)C1N=Nc1ccccc1 (configuration not stated)
[14]
  T/C: 105 % of control
[15]
  T/C: 102 % of control
[16]
  T/C: 108 % of control
